{"source": "patent US20070167405A1", "about": "“Galectins -1 and -4 in tumor development” (priority 2001, published 2007)", "key": {"[1]": {"molecular_target": "T1, recombinant human galectin-4 (Homo sapiens, UniProt P56470)", "T1 construct": "cDNA encoding full-length human galectin-4 was amplified from an EST clone; made in house; host or cells: E. coli BL21 (DE3)pLysS", "T1 sequence (P56470 1-323)": "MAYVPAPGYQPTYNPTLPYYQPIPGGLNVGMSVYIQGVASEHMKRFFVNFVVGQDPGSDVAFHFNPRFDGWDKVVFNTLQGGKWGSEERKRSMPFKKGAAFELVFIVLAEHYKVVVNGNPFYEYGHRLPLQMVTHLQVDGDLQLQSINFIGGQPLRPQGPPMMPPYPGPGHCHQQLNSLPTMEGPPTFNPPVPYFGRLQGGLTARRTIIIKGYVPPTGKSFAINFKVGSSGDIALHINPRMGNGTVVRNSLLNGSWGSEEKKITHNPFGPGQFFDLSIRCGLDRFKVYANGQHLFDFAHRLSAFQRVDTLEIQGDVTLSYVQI", "assay": "SPR (BIAcore) equilibrium binding to immobilized galectin-4", "description": "(§1) Galectin binding affinity measurements were performed in a surface plasmon resonance (SPR) assay using […] instrument (BIAcore, Inc, Uppsala, Sweden). PBS with 5 mM β-mercaptoethanol was used as running buffer for all experiments. Purified recombinant human galectin-1 and galectin-4 were immobilized at different surface densities on CM5 carboxymethyldextran chip (BIAcore) in the presence of 150 mM lactose, using standard amine coupling chemistry. Galectin immobilization was performed at 5 μl/min flow rate. To ensure the maximum possible immobilization of recombinant proteins, carboxylmethyldextran surface was activated with a 15 min pulse of a mixture of 0.05 M N-hydroxysuccinimide (NHS) with 0.2 M N-ethyl-N′-(dimethylaminopropyl) carbodiimide (EDC). Recombinant galectins, diluted to 30 μg/ml in 10 mM Na Acetate buffer (pH 4.8 for galectin-1 and pH 5.5 for galectin-4) were coupled to the surface during a 15-minute injection. Following galectin injection, remaining activated groups on the surface of the chip were deactivated with a 7 min pulse of 1 M ethanolamine hydrochloride, pH 8.5. Blank, unmodified CM5 surface was used as a negative control for the corrections for refractive index changes due to the presence of lactulosamines.\n(§2) Binding of lactulosamines was performed at 80 μl/min flow rate, with injection times of 15 sec. […] Instead, the equilibrium binding levels were examined and determined the equilibrium binding constant using steady state affinity fitting model (BIAevaluation software version 3.1)."}, "breast cancer cells": {"tested_on": "breast cancer cells", "conditions": "nude mouse model; cited from earlier work"}, "[2]": {"molecular_target": "recombinant human galectin-1 (Homo sapiens, UniProt P09382)", "sequence (P09382 whole entry)": "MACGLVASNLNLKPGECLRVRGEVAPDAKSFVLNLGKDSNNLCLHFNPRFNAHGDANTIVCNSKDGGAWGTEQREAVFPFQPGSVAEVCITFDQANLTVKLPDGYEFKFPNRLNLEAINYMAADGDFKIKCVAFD", "assay": "SPR (BIAcore) equilibrium binding to immobilized galectin-1", "conditions": "for binding to galectin-1 (in words): SPR assay", "description": "as §1, §2"}, "[3]": {"molecular_target": "galectin-1 binding to 90K/MAC-2BP (Homo sapiens, UniProt P09382)", "sequence (P09382 2-135 limits assumed)": "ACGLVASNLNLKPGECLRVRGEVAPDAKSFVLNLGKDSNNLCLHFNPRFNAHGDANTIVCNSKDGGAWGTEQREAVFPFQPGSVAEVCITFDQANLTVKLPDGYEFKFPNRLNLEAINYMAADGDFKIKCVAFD", "assay": "ELISA, inhibition of galectin-1 binding to immobilized 90K", "conditions": "for inhibition of binding of galectin-1 to 90K: at 156 μM, galectin-1 2.5 μg/ml (0.17 μM)", "description": "(§3) Human 90K/MAC-2BP (thereafter called 90K) was purified from transfected EBNA-293 cells (lurisci, I., et al., Clin. Cancer Res. (2000) 6:1389-1393). Laminin was obtained from Boehringer Mannheim GmbH (Germany). The ELISA for galectin binding has been previously described (Tinari, N., et al., Int. J. Cancer (2001) 91:167-172). Briefly, Nunc Maxisorb microtiter wells were coated with 0.5 μg/well of 90K or laminin. Recombinant galectin-1 (2.5 μg/ml or 0.17 μM) was diluted in PBS with 0.1% Tween-20 and added to wells coated with glycoproteins, and galectin-1 binding was detected with anti-galectin-1 rabbit antiserum. In binding-inhibition experiments, recombinant galectin-1 was diluted in PBS-0.1% Tween-20 containing indicated concentration of lactulosamines or lactose."}, "cancer cells": {"tested_on": "cancer cells", "conditions": "cited from earlier work"}, "[4]": {"molecular_target": "galectin-1 binding to laminin (Homo sapiens, UniProt P09382)", "sequence (P09382 2-135 limits assumed)": "as above", "assay": "ELISA, inhibition of galectin-1 binding to immobilized laminin", "conditions": "for inhibition of binding of galectin-1 to laminin: at 156 μM, galectin-1 2.5 μg/ml (0.17 μM)", "description": "as §3"}, "CD8+ CTL clone [5]": {"tested_on": "CD8+ CTL clone", "assay": "CD8+ CTL clone survival after TF peptide stimulation, with galectin-1 and inhibitors", "type": "cell-based", "source_text": "The ability of L2hmda to restore this activity is especially significant since TDG, a known galectin inhibitor, is toxic. However, L2hmda is not toxic. […] The CD8+ CTL clone was stimulated with TF peptide for 4 days and cell survival (% of starting number) measured by enumerating viability by trypan blue exclusion."}, "N202.1A tumor cells": {"tested_on": "N202.1A tumor cells", "assay": "N202.1A tumor growth in Neu mice", "type": "in vivo", "conditions": "100 μl of 100 μM daily combined with dendritic cell therapy, 25 days, FIG. 11, listed as L2hmda", "description": "Neu mice were inoculated on Day 0 with 10^6 N202.1A tumor cells. The animals were divided into four groups of four mice each. On Day 7, groups 2 and 4 were subjected to dendritic cell therapy which involved immunization with 10^6 dendritic cells pulsed with apoptotic N202.1A cells and intraperitoneal injections of recombinant IL-2 (10^4 1.U./injection) from Day 10 to […]. Groups 3 and 4 received injections of 100 μl of 100 μM L2hmda daily."}, "CD8+ CTL clone [6]": {"tested_on": "CD8+ CTL clone", "assay": "Cytokine production by CD8+ CTL clone after TF peptide stimulation, with galectin-1 and inhibitor", "type": "cell-based", "description": "Treatment in vitro of CD4+ and CD8+T cells with recombinant soluble galectin-1 inhibits their survival and ability to secrete cytokine, such as interferon-γ and IL-2. […] In FIG. 10A, cells are stimulated by TF peptide and the levels of interferon-γ produced measured in nanogram/milliliter (ng/ml). As shown, galectin-1 inhibits interferon-γ secretion in a dose-dependent manner. […] Similar data were seen when another cytokine, IL-2, was measured (not shown)."}, "[7]": {"conditions": "SPR steady state affinity fit, Table I, read-out: Galectin-4 binding, KD"}, "[8]": {"conditions": "SPR, full-length galectin-4 with two binding domains, read-out: KD for galectin-4"}, "[9]": {"conditions": "SPR steady-state analysis, read-out: KD value for galectin-1"}}, "note": "Where “and” joins values, the source holds several entries; their conditions need not be identical. Equal values may be shown once. Entries after “also recorded” stand apart in the source; their conditions may differ. Read-outs that look alike come from different tables or passages of the source.", "data": [{"smiles": "CC(C)CC(NCC(=O)C(O)C(OC1OC(CO)C(O)C(O)C1O)C(O)CO)C(=O)O", "note": "[Lactulose-L-leucine, lactulose-L-leucine]", "values": [{"measurement": "Kd", "setting": "[1]; [7]", "value": "505 µM and 800 µM and 1010 µM"}, {"measurement": "Kd", "setting": "[1]; [8]", "value": "~800", "unit": "µM"}, {"measurement": "clonogenic growth and metastasis of breast cancer cells", "setting": "breast cancer cells", "value": "block"}, {"measurement": "binding to galectin-1 (in words)", "setting": "[2]", "value": "could bind"}, {"measurement": "Kd", "setting": "[2]; SPR steady state affinity fit, Table I, read-out: Galectin-1 binding, KD", "value": "113 µM and 200 µM"}, {"measurement": "Kd", "setting": "[2]; [9]", "value": "~110", "unit": "µM"}, {"measurement": "inhibition of binding of galectin-1 to 90K", "setting": "[3]", "value": "about 50%"}, {"measurement": "adhesion of cancer cells to endothelium", "setting": "cancer cells", "value": "blocks"}, {"measurement": "inhibition of binding of galectin-1 to laminin", "setting": "[4]", "value": "~40", "unit": "%"}]}, {"smiles": "OCC1OC(OC2C(O)COC(O)(CNCCCCCCNCC3(O)OCC(O)C(OC4OC(CO)C(O)C(O)C4O)C3O)C2O)C(O)C(O)C1O", "note": "(centres unmarked) [Dilactulose-hexamethylenediamine, dilactulose-hexamethylenediamine]", "values": [{"measurement": "prevention of cell death induced by galectin-1", "setting": "CD8+ CTL clone [5]; 4 days, trypan blue exclusion, FIG. 10B", "value": "prevented the majority of cell death"}, {"measurement": "restoring the ability of CTL's to proliferate", "setting": "CD8+ CTL clone [5]; in presence of galectin-1, FIG. 10B", "value": "able to restore"}, {"measurement": "binding to galectin-4 (in words)", "setting": "[1]; SPR assay", "value": "superior in binding"}, {"measurement": "Kd", "setting": "[1]; [7]", "value": "78 µM and 83 µM and 105 µM and 115 µM"}, {"measurement": "Kd", "setting": "[1]; [8]", "value": "~80", "unit": "µM"}, {"measurement": "tumor volume", "setting": "N202.1A tumor cells", "value": "superior to treatment with either alone; also recorded: very little tumor volume enhancement"}, {"measurement": "half-life, weighted average of the two components of dissociation rate", "setting": "[2]", "value": 7, "unit": "s"}, {"measurement": "binding to galectin-1 (in words)", "setting": "[2]", "value": "superior in binding"}, {"measurement": "binding to galectin-1 (in words)", "setting": "[2]; listed as L2hmda", "value": "significantly stronger"}, {"measurement": "Kd", "setting": "[2]; [9]", "value": "~1.5", "unit": "µM"}, {"measurement": "half-life, fast component", "setting": "[2]; corresponding to fast koff", "value": 3, "unit": "s"}, {"measurement": "half-life, slow component", "setting": "[2]; corresponding to slow koff", "value": 19, "unit": "s"}, {"measurement": "koff, fast component", "setting": "[2]; two-component dissociation model, fast component 40% of overall rate", "value": "0.16 to 0.2", "unit": "s⁻¹"}, {"measurement": "koff, slow component", "setting": "[2]; two-component dissociation model, slow component 60% of overall rate", "value": 0.036, "unit": "s⁻¹"}, {"measurement": "inhibition of galectin-1 binding to 90K (in words)", "setting": "[3]; ELISA, FIG. 9A", "value": "most potent inhibitor"}, {"measurement": "inhibition of binding of galectin-1 to 90K", "setting": "[3]", "value": "about 80%"}, {"measurement": "restoration of interferon secretion", "setting": "CD8+ CTL clone [6]; galectin-1 7 μM, L2hmda 200 μM, FIG. 10C", "value": "restores the interferon 7 secretion to normal"}, {"measurement": "galectin-1 mediated suppression of IFN-γ production by the CTL", "setting": "CD8+ CTL clone [6]; increasing concentrations (50-200 uM) of inhibitor", "value": "completely prevented"}, {"measurement": "inhibition of galectin-1 binding to laminin (in words)", "setting": "[4]; ELISA, FIG. 9B", "value": "most potent inhibitor"}, {"measurement": "inhibition of binding of galectin-1 to laminin", "setting": "[4]", "value": "about 70%"}]}]}
